This passage reports pest or weed control results from patent US20040043904A1, “N-(4-pyrazolyl) amide derivatives, chemicals for agricultural and horticultural use, and usage of the same” (priority 2003, published 2004).

For the test, the system named is green peach aphid (Myzus persicae). The experiment in a line: Insecticidal effect on green peach aphid (Test Example 7). Conditions: 144 h, stems and leaves of Chinese cabbage sprayed, parasites counted six days after spraying, read-out: insecticidal effect (control efficacy). It is filed as in vivo. The source says: Insecticidal Effect on Green Peach Aphid (Myzus persicae)
A Chinese cabbage plant was planted in each of plastic pots with a diameter of 8 cm and a height of 8 cm, and green peach aphids were propagated on the plant. The number of parasites of each pot was counted.
Then, the stems and leaves were sufficiently sprayed with the test solution. After air-drying, the pots were allowed to stand in a greenhouse.
Control efficacy (%)=100[(T×Ca)/(Ta×C)]×100
Ta: number of parasites before spraying in treated group,
T : number of parasites after spraying in treated group,
Ca: number of parasites before spraying in untreated group,
[…]: number of parasites after spraying in untreated group.
`CCn1ncc(NC(=O)Cc2ccc(Oc3ccc(C(F)(F)F)nn3)c(OC)c2)c1Cl` [Compound D-78, 5-chloro-4-(3-methoxy-4-(6-trifluoromethylpyridazine-3-yloxy)phenylacetylamino)-1-ethylpyrazole]: the pest or weed control at 500 ppm was found to be 100%.
Turning to `COc1cc(CC(=O)Nc2cnn(CCCl)c2Cl)ccc1Oc1ccc(C(F)(F)F)cn1` [Compound D-71, 5-chloro-4-(3-methoxy-4-(5-trifluoromethylpyridine-2-yloxy)phenylacetylamino)-1-(2-chloroethyl) pyrazole], the pest or weed control at 500 ppm stood at 100%.
For `Cc1nn(C)c(Cl)c1NC(=O)Cc1ccc(-c2ccc(OC(F)(F)F)cc2)cc1` [Compound B-23, 5-chloro-4-(4-(4-trifluoromethoxyphenyl)phenylacetylamino)-1,3-dimethylpyrazole], the pest or weed control at 500 ppm came out at 100%.
Turning to `Cc1nn(C)c(Cl)c1NC(=O)Cc1ccc2oc(CC(C)(C)C)nc2c1` [Compound C-1, 5-chloro-4-(2-(2,2-dimethylpropyl)benzoxazole-5-ylacetylamino)-1,3-dimethylpyrazole], the pest or weed control at 500 ppm is 100%.
The result for `CCn1ncc(NC(=O)Cc2ccc(Oc3ccc(C(F)(F)F)cn3)c(OC)c2)c1Br` [Compound D-79, 5-bromo-4-(3-methoxy-4-(5-trifluoromethylpyridine-2-yloxy)phenylacetylamino)-1-ethylpyrazole] reads 100%; that for `CCn1ncc(NC(=O)Cc2ccc(Oc3nc(C(F)(F)F)cs3)c(OC)c2)c1Cl` [Compound D-94, 5-chloro-4-(3-methoxy-4-(4-trifluoromethylthiazole-2-yloxy)phenylacetylamino)-1-ethylpyrazole], 100%.
`CCn1ncc(NC(=O)Cc2ccc(Oc3ccc(C(F)(F)F)cn3)c(OC)c2)c1Cl` [Compound D-33, 5-chloro-4-(3-methoxy-4-(5-trifluoromethylpyridine-2-yloxy)phenylacetylamino)-1-ethylpyrazole]: the pest or weed control at 500 ppm was 100%.
